Assay results taken from US20040248964A1, “Analgesic uses of norketamine and ketamine/norketamine prodrugs” (priority 2002, published 2004).

Experiments:
[1] = Norketamine i.v. drip in a patient with intractable bladder pain, pain level subjectively evaluated by the patient; assay type: in vivo, human
Description: A patient, weighing approximately 60 kg, presents with intractable bladder pain (interstitial ceptitis), which has been diagnosed previously. Pain management in this patient consists of 100 mg Demoral every 3 hours; Dilaudid 2-4 mg every 4 hours; Dalmane 30 mg per day; Duralgesic patches (fentanyl transdermal patches); bladder washes with Pyridium (phenaropyridine HCl), which is a urinary tract analgesic; and belladonna and opiate suppositories. In addition to the pain medication, the patient takes Zanax and Tagamet to alleviate gastric distress, and Compazine (an anti-emetic) to counteract nausea. Gastric distress and nausea in this patient result from the pain medication.
Despite the dosages and range of pain medications used by this patient, satisfactory pain management is not achieved.
A diagnostic pre-sacral, or ilio-hypogastric, nerve block is performed on this patient to alleviate the pain. Unfortunately, the effect of the block is temporary, and the block is associated with significant motor weakness. After the block wears off, the patient states that they are unable to function, as the most mundane activities are exhausting.
Norketamine (10 mg/cc) drip was administered i.v. over one hour, for a total dose of 40 mg norketamine. […] About 1 hour after norketamine infusion is discontinued, the patient reports that the level of pain has increased to about #15, and thereafter rapidly to its previous level. The patient continues to take the other pain medications without effect.

NMDA receptor = settings: cited from earlier work
[2] = cited from earlier work
rats = settings: intravenously or intraspinally; cited from earlier work
[3] = Nasal spray self-administration of norketamine in the same patient

With `NC1(c2ccccc2Cl)CCCCC1=O` (stereo not drawn) [Norketamine, 2-(2-chlorophenyl)-2-amino-cyclohexanone] the “reduction of the pain level by a factor” value ([1]; 10 mg/cc drip i.v. over one hour, total dose 40 mg, from #20, subjectively evaluated by the patient) was 2, the “pain level about 1 hour after norketamine infusion is discontinued” value ([1]; thereafter rapidly to its previous level) was roughly 15 and the “pain level after norketamine infusion” value ([1]; total dose 40 mg i.v. over one hour, level before #20) was 10-12. The “binding to the NMDA receptor compared with S- or R-ketamine” value (NMDA receptor) was “less tightly”, the “anesthetic and analgesic potency relative to ketamine” value ([2]; speculated) was “one third” and the “adverse sequelae compared with an equal dose of ketamine” value (rats) was “fewer of the adverse sequelae”. For the same compound, the “control of breakthrough pain” value ([3]; nasal administration) was “particularly effective” and the “pain management with nasal administration” value ([3]; nasal spray 100 mg/ml, 16 mg per spray, 1-2 sprays for severe pain) was “remarkable pain management”.
For `CCCCOC(=O)NC1(c2ccccc2Cl)CCCCC1=O` (stereo not drawn), the melting point was 130 to 132 °C.
In the case of `CC(C)OC(=O)NC1(c2ccccc2Cl)CCCCC1=O` (stereo not drawn), the melting point is reported as 124 to 126 °C.
For `CN[C@]1(c2ccccc2Cl)CCCCC1=O` [S-ketamine, reference compound], the “potency relative to R-ketamine” value ([2]; in vivo) is listed as “twice as potent”.
With `CCOC(=O)NC1(c2ccccc2Cl)CCCCC1=O` (stereo not drawn) the melting point was 112 to 114 °C.
